Patent US7323601B2, “Enanitomers of unsaturated alkyllysophosphonocholines and use as anti-neoplastics” (Research Foundation of the City University of New York, priority 2001, dated 2008)

Columns and labels:
[1] = system: NIH-3T3 normal fibroblast cell line; test: Growth inhibition (GI50), NIH-3T3; format: cell-based; settings: NIH-3T3 normal cell line (murine)
Text: (§1) For growth inhibitory evaluation, five human tumor cell lines (U937; HT29; A549; MCF7; MCF7/ADR) and two normal fibroblast cell lines (NIH-3T3, murine; WI-38, human) were used. For comparison, the activity of free L-ET18OCH3 and D-ET18OCH3 was examined.

[2] = system: normal cell lines as compared to the tumor cell lines; test: Growth inhibition, normal versus tumor cell lines; format: cell-based; settings: normal (NIH-3T3, WI-38) versus tumor cell lines
Text: as §1

MAP kinase = MAP kinase phosphorylation in stimulated MCF-7 cells (Western blot); format: cell-based; settings: 15 μM preincubation 3 h; insulin- and EGF-stimulated MCF-7 cells
Procedure: (§2) Quiescent MCF-7 cells were preincubated with (“+” in FIGS. 6-8) or without (“−” in FIGS. 6-8) 15 μM of the R or S enantiomer of ET-16-phosphono-TDB (TDB-PC in FIGS. 7-9) in DMEM supplemented with BSA (0.5 mg/mL) for 3 h. The cells were washed twice and stimulated with […] growth factor (EGF) or insulin for various periods. At the end of the incubation, the medium was aspirated, and the cells washed with ice-cold PBS and scraped into ice cold buffer comprising 20 mM Tris-HCl (pH 7.4) 2 mM EGTA, 100 mM β-glycerophosphate, 1 mM Na3VO4, aprotinin (10 μg/mL), leupeptin (10 μg/mL), 0.2 mM aininoethylbenzylsulfonyl fluoride, 0.2 mM benzarnidine, 1 mM dithiothreitol, 1% triton-X-100, and 0.5% NP-40). After ultrasonication, the mixture was centrifuged at 100,000×g for 30 min. The cell lysates were flash frozen and stored at −70° C. until required.
(§3) MAP kinase activity in cell lysates from EGF and insulin-stimulated MCF-7 cells were assessed by Western blot analysis with phospho-specific antibodies according to the instructions provided by the manufacturer (New England Biolabs). PKB/AKT activity in insulin-stimulated MCF-7 cell lysates was also assessed with phospho-specific antibodies by Western blot analysis. Bound antibody was visualized by chemiluminescence using reagents from Boehringer Mannheim and quantitated with a multiimager Fluor S system (BioRad).

[3] = system: MDA-MB-468 breast epithelial cancer cell line; test: Proliferation of log-phase cells, MDA-MB-468; format: cell-based; settings: 48 h incubation, 10% FBS-supplemented medium, read-out: IC50 values (drug concentration required to reduce cell growth by 50%)
Procedure: (§4) All the cell lines were grown from frozen stocks originally obtained from ATCC. T47D, MDA-MB-468 and MCF-7 (breast cancer cell lines) were grown in DMEM. SK-N-MC and SK-N-SH (neuroblastoma) were grown in minimum essential medium with non-essential amino acids and Earle's balanced salt solution. All media were supplemented with 10% FBS and antibiotics (Ashagbley, A., Samadder, P., Bittman, R., Erukulla, R. K., Byun, H-S., Arthur, G. (I 996) Anticancer Res. 16, 1813-1818).
(§5) The effect of the ET-16-phosphono-TDBs on cell proliferation was conducted as previously described (Ashagbley, A., Samadder, P., Bittman, R., Erukulla, R. K., Byun, H-S., Arthur, G. (1996) Anticancer Res. 16, 1813-1818; and Lu, X., and Arthur, G. (1992) Cancer Res. 52, 2806-2812). The cells were seeded in 24-well dishes at a density of 20,000 cells/well with 10% FBS-supplemented medium. The cell numbers were monitored daily. […] The cell numbers at the time of addition of the drugs were determined with a Coulter ZM counter. After 48 h incubation, the cell numbers were determined and the increase in cell number over the numbers at the time of the addition of the drugs was determined and expressed as a function of the control cells which received no drug. The viability of the cells was assessed by the ability to exclude trypan blue dye.

PKB/AKT = PKB/AKT phosphorylation in stimulated MCF-7 cells (Western blot); format: cell-based; settings: 15 μM preincubation 3 h; insulin- and EGF-stimulated MCF-7 cells
Procedure: as §2, §3

U937 tumor cell line = test: Growth inhibition (GI50), U937; format: cell-based, human
HT29 tumor cell line = test: Growth inhibition (GI50), HT29; format: cell-based, human
MCF7/ADR tumor cell line = test: Growth inhibition (GI50), MCF7/ADR; format: cell-based, human
[4] = system: MCF-7 breast epithelial cancer cell line; test: Proliferation of log-phase cells, MCF-7; format: cell-based; settings: 48 h incubation, 10% FBS-supplemented medium, read-out: IC50 values (drug concentration required to reduce cell growth by 50%)
Procedure: as §4, §5

MCF7 tumor cell line = test: Growth inhibition (GI50), MCF7; format: cell-based, human
[5] = system: WI-38 normal fibroblast cell line; test: Growth inhibition (GI50), WI-38; format: cell-based; settings: WI38 normal cell line (human)
Text: as §1

[6] = system: T47D breast epithelial cancer cell line; test: Proliferation of log-phase cells, T47D; format: cell-based; settings: 48 h incubation, 10% FBS-supplemented medium, read-out: IC50 values (drug concentration required to reduce cell growth by 50%)
Procedure: as §4, §5

[7] = system: SK-N-SH neuroblastoma cell line; test: Proliferation of log-phase cells, SK-N-SH; format: cell-based; settings: 48 h incubation, 10% FBS-supplemented medium, read-out: IC50 values (drug concentration required to reduce cell growth by 50%)
Procedure: as §4, §5

[8] = system: SK-N-MC neuroblastoma cell line; test: Proliferation of log-phase cells, SK-N-MC; format: cell-based; settings: 48 h incubation, 10% FBS-supplemented medium, read-out: IC50 values (drug concentration required to reduce cell growth by 50%)
Procedure: as §4, §5

A549 tumor cell line = test: Growth inhibition (GI50), A549; format: cell-based, human

| SMILES | GI50 [1] | selectivity: GI50 values for the normal cell lines as compared to the tumor cell lines [2] | inhibition of phosphorylation of MAP kinase (MAP kinase) | IC50 [3] | inhibition of phosphorylation of PKB (PKB/AKT) | GI50 (U937 tumor cell line) | GI50 (HT29 tumor cell line) | GI50 (MCF7/ADR tumor cell line) | IC50 [4] | GI50 (MCF7 tumor cell line) | GI50 [5] | IC50 [6] | IC50 [7] | IC50 [8] | GI50 (A549 tumor cell line) |
| --- | --- | --- | --- | --- | --- | --- | --- | --- | --- | --- | --- | --- | --- | --- | --- |
| CCCCCCCCCCCCCCCCOC[C@H](C=CP(=O)([O-])OCC[N+](C)(C)C)OC [(S)-ET-16-phosphono-TDB, 2′-(Trimethylammonio)ethyl 4-(hexadecyloxy)-3-(S)-methoxy-1-butenephosphonate] | 66.3 µM | remarkable selectivity | to a greater extent than the less active R enantiomer | 4.2 µM | to a greater extent than the less active R enantiomer | 1.1 µM | 2.8 µM | > 40 µM | 1.9 µM | 32.4 µM | 14.4 µM | 0.9 µM | 1.8 µM | 2.2 µM | 9 µM |
| CCCCCCCCCCCCCCCCOC[C@@H](C=CP(=O)([O-])OCC[N+](C)(C)C)OC [(R)-ET-16-phosphono-TDB, 2′-(Trimethylammonio)ethyl 4-(hexadecyloxy)-3-(R)-methoxy-1-butenephosphonate] | 77.3 µM | remarkable selectivity | – | > 5 µM | – | 2.2 µM | 5.9 µM | > 40 µM | 4.1 µM | 35.1 µM | 57.5 µM | > 5 µM | 2.5 µM | > 5 µM | 15.3 µM |
